Our source for the IC50 values is patent US10239843B2 (CANCER RESEARCH TECHNOLOGY LIMITED, priority 2014, dated 2019).

One test has as its target Human Full Length PARG (Homo sapiens (Human), UniProt Q86W56). Kind of test: PARG enzyme assay (TR-FRET). Format: biochemical.
The subject of a further test is PARG in HeLa cell line. The test can be described thus: PARG cell assay (PAR chain immunofluorescence after MMS). Format: cell-based. The following applies: HeLa cells. The method, boiled down: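 HeLa cells were dosed with compound for 1 h, then given MMS at 50 μg/mL final for a further hour. Cells were methanol-fixed, permeabilised and stained overnight at 4° C with anti-PAR monoclonal antibody. Retained nuclear PAR chains, detected by indirect immunofluorescence, indicate PARG inhibition.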

Setting [1] is: Homo sapiens, MMS treatment, read-out: PARG Cell IC50.
The mark [2] stands for this setting: read-out: PARG Biochem IC50 Geomean.
[3] abbreviates: Homo sapiens, MMS 50 μg/mL, read-out: PARG Cell IC50 Geomean.
Where [4] appears, read: MMS 50 μg/mL, read-out: PARG Cell IC50 Geomean.

Read-outs that look alike come from different tables or passages of the source.

Chain of Human Full Length PARG (Q86W56 whole entry): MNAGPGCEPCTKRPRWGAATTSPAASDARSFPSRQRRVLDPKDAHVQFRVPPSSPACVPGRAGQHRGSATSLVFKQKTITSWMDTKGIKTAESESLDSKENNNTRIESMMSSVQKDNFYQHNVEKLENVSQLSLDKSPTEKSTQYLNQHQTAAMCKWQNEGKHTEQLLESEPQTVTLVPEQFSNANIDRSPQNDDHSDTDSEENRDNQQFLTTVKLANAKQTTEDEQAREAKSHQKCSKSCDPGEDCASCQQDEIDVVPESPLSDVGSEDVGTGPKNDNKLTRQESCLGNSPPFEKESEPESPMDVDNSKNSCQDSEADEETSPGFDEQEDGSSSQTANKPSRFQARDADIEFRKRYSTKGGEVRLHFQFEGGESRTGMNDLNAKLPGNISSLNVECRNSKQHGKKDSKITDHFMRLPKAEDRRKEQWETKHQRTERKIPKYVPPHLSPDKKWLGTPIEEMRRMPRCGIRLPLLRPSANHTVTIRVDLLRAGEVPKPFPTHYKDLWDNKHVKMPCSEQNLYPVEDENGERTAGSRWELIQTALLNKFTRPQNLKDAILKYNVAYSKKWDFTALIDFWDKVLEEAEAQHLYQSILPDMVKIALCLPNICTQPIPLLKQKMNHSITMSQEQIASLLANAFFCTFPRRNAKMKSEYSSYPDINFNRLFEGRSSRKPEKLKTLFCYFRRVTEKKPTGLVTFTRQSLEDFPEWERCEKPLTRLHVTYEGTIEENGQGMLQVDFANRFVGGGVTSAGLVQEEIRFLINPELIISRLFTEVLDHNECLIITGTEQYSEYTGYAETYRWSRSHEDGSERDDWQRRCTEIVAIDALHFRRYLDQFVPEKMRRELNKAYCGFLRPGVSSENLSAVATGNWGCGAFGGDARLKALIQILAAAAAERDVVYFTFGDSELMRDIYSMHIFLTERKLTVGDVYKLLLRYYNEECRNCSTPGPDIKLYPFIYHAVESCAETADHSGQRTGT

Consider `Cc1ncc(Cn2c(=O)c3cc(S(=O)(=O)NC4(CF)CC4)ccc3n(C)c2=O)s1` [Example 533, N-[1-(Fluoromethyl)cyclopropyl]-1-methyl-3-[(2-methylthiazol-5-yl)methyl]-2,4-dioxo-quinazoline-6-sulfonamide], for which the IC50 at Human Full Length PARG (read-out: PARG Biochem IC50) amounted to 287 nM; in the test on PARG in HeLa cell line (setting [1]) it was 282 nM.
As to `Cc1cc(Cn2c(=O)c3cc(S(=O)(=O)NC4(C)CC4)ccc3n(CC3CNC3)c2=O)on1` [Example 415, 1-(Azetidin-3-ylmethyl)-N-(1-methylcyclopropyl)-3-[(3-methylisoxazol-5-yl)methyl]-2,4-dioxo-quinazoline-6-sulfonamide], the IC50 turned out to be 609 nM on Human Full Length PARG (read-out: PARG Biochem IC50) and 1440 nM with PARG in HeLa cell line (setting [1]).
Consider `CC(C)Cn1c(=O)n(Cc2cnn(C)c2)c(=O)c2cc(S(=O)(=O)NC3(C)CC3)ccc21` [Example 295], for which the IC50 was 70 nM on Human Full Length PARG (setting [2]) and 85 nM in the test on PARG in HeLa cell line (setting [3]).
In the case of `Cc1cc(Cn2c(=O)c3cc(S(=O)(=O)NC4(C)CC4)ccc3n(Cc3cc(C)nn3C)c2=O)on1` [Example 207], the IC50 at Human Full Length PARG (setting [2]) turned out to be 38 nM; in the test on PARG in HeLa cell line (setting [4]) it was 116 nM.
As to `Cc1cc(Cn2c(=O)c3cc(S(=O)(=O)NC4(C)CC4)ccc3n(CC3CCCN3C)c2=O)on1` (stereo not shown) [Example 249], the IC50 at Human Full Length PARG (setting [2]) is 402 nM; with PARG in HeLa cell line (setting [3]) it was 315 nM.
For the molecule `Cn1c(=O)n(Cc2cnn3ccccc23)c(=O)c2cc(S(=O)(=O)NC3(C)CC3)ccc21` [Example 434, 1-Methyl-N-(1-methylcyclopropyl)-2,4-dioxo-3-(pyrazolo[1,5-a]pyridin-3-ylmethyl)quinazoline-6-sulfonamide], the concentration for half-maximal inhibition (IC50) on Human Full Length PARG (read-out: PARG Biochem IC50) turned out to be 5910 nM; in the test with PARG in HeLa cell line (setting [1]) it was 609 nM.
With `CN1CCCCC1Cn1c(=O)n(Cc2cnn(C)c2)c(=O)c2cc(S(=O)(=O)NC3(C)CC3)ccc21` (stereo not shown) [Example 238], the values for the IC50 at Human Full Length PARG (setting [2]) and in the test on PARG in HeLa cell line (setting [3]) were 158 nM and 220 nM, respectively.
For `CC1(NS(=O)(=O)c2ccc3c(c2)c(=O)n(CC#N)c(=O)n3CC2CC2)CC1` [Example 193], the half-inhibitory concentration (IC50) at Human Full Length PARG (setting [2]) turned out to be 277 nM; with PARG in HeLa cell line (setting [3]), 556 nM.
Regarding `Cc1nnc(Cn2c(=O)n(Cc3cnn(C)c3)c(=O)c3cc(S(=O)(=O)NC4(CF)CC4)ccc32)s1` [Example 583, N-[1-(Fluoromethyl)cyclopropyl]-3-[(1-methylpyrazol-4-yl)methyl]-1-[(5-methyl-1,3,4-thiadiazol-2-yl)methyl]-2,4-dioxo-quinazoline-6-sulfonamide], the results for the concentration for half-maximal inhibition (IC50) at Human Full Length PARG (read-out: PARG Biochem IC50) and in the test on PARG in HeLa cell line (setting [1]) were 93 nM and 153 nM, respectively.
The corresponding values for `Cn1cc(Cn2c(=O)c3cc(S(=O)(=O)NC4(CF)CC4)ccc3n(CCF)c2=O)cn1` [Example 544, 1-(2-Fluoroethyl)-N-[1-(fluoromethyl)cyclopropyl]-3-[(1-methylpyrazol-4-yl)methyl]-2,4-dioxo-quinazoline-6-sulfonamide] are 151 nM and 86 nM.
Take `Cn1c(=O)n(Cc2nncs2)c(=O)c2cc(S(=O)(=O)NC3(CF)CC3)ccc21` [Example 624, N-[1-(Fluoromethyl)cyclopropyl]-1-methyl-2,4-dioxo-3-(1,3,4-thiadiazol-2-ylmethyl)quinazoline-6-sulfonamide]: the half-maximal inhibitory concentration (IC50) was 1040 nM at Human Full Length PARG (read-out: PARG Biochem IC50) and 4350 nM with PARG in HeLa cell line (setting [1]).
The corresponding values for `Cc1cc(Cn2c(=O)c3cc(S(=O)(=O)NC4(CF)CC4)ccc3n(CC3COC3)c2=O)on1` [Example 522, N-[1-(Fluoromethyl)cyclopropyl]-3-[(3-methylisoxazol-5-yl)methyl]-1-(oxetan-3-ylmethyl)-2,4-dioxo-quinazoline-6-sulfonamide] are 112 nM and 923 nM.
As to `Cc1cc(Cn2nc(NC3CCOCC3)c3ccc(S(=O)(=O)NC4(C)CC4)cc3c2=O)on1` [Example 306], the IC50 was found to be 367 nM on Human Full Length PARG (setting [2]) and 471 nM with PARG in HeLa cell line (setting [4]).
Consider `Cc1ncc(Cn2c(=O)c3cc(S(=O)(=O)NC4(C)CC4)ccc3n(CC3CC(C)(C)C3)c2=O)s1` [Example 478, 1-[(3,3-dimethylcyclobutyl)methyl]-N-(1-methylcyclopropyl)-3-[(2-methylthiazol-5-yl)methyl]-2,4-dioxo-quinazoline-6-sulfonamide], for which the 50% inhibitory concentration (IC50) at Human Full Length PARG (read-out: PARG Biochem IC50) is 109 nM; in the test with PARG in HeLa cell line (setting [1]), 121 nM.
With `COCCCn1c(=O)n(Cc2cc(C)no2)c(=O)c2cc(S(=O)(=O)NC3(C)CC3)ccc21` [Example 251], the values for the half-maximal inhibitory concentration (IC50) at Human Full Length PARG (setting [2]) and with PARG in HeLa cell line (setting [4]) were 392 nM and 178 nM, respectively.
Turning to `C#CCn1c(=O)n(Cc2cnn(C)c2)c(=O)c2cc(S(=O)(=O)NC3(C)CC3)ccc21` [Example 178], the figures for the half-maximal inhibitory concentration (IC50) on Human Full Length PARG (setting [2]) and with PARG in HeLa cell line (setting [3]) were 52 nM and 126 nM, respectively.
Regarding `Cc1cc(Cn2c(=O)c3cc(S(=O)(=O)NC4(C)CC4)ccc3n(CCC(N)=O)c2=O)on1` [Example 277], the concentration for half-maximal inhibition (IC50) on Human Full Length PARG (setting [2]) came out at 432 nM; in the test with PARG in HeLa cell line (setting [3]), 5760 nM.
In the case of `Cc1ncc(Cn2c(=O)c3cc(S(=O)(=O)NC4(C)CC4)ccc3n(C)c2=O)s1` [Example 109], the IC50 amounted to 483 nM on Human Full Length PARG (setting [2]) and 288 nM in the test with PARG in HeLa cell line (setting [3]).
The corresponding values for `CCn1c(=O)n(Cc2cnn(C)c2)c(=O)c2cc(S(=O)(=O)NC3(C)CC3)c(F)cc21` [Example 389, 1-Ethyl-7-fluoro-N-(1-methylcyclopropyl)-3-[(1-methylpyrazol-4-yl)methyl]-2,4-dioxo-quinazoline-6-sulfonamide] are 60 nM and 79 nM.
`Cc1cc(Cn2c(=O)n(C)c(=O)c3cc(S(=O)(=O)NC4(C)CC4)c(F)cc32)n(C)n1` [Example 213]: the values for the half-maximal inhibitory concentration (IC50) at Human Full Length PARG (setting [2]) and in the test with PARG in HeLa cell line (setting [3]) were 473 nM and 787 nM, respectively.
The corresponding values for `Cn1cc(Cn2c(=O)c3cc(S(=O)(=O)NC4(C#N)CC4)ccc3n(CC#N)c2=O)cn1` [Example 356] are 396 nM and 16600 nM.
`Cn1cc(Cn2c(=O)c3cc(S(=O)(=O)NC4(C)CC4)ccc3n(CC3CCOCC3)c2=O)cn1` [Example 269]: the figures for the IC50 on Human Full Length PARG (setting [2]) and with PARG in HeLa cell line (setting [3]) were 57 nM and 98 nM, respectively.
Turning to `Cc1cc(Cn2c(=O)c3cc(S(=O)(=O)NC4(C#N)CC4)ccc3n(C)c2=O)on1` [Example 229], the concentration for half-maximal inhibition (IC50) at Human Full Length PARG (setting [2]) was found to be 446 nM; with PARG in HeLa cell line (setting [3]), 1470 nM.
As to `Cn1cc(Cn2c(=O)[nH]c3ccc(S(=O)(=O)NC4(CF)CC4)cc3c2=O)cn1` [Example 416, N-[1-(Fluoromethyl)cyclopropyl]-3-[(1-methylpyrazol-4-yl)methyl]-2,4-dioxo-1H-quinazoline-6-sulfonamide], the 50% inhibitory concentration (IC50) is 430 nM on Human Full Length PARG (read-out: PARG Biochem IC50) and 1320 nM in the test with PARG in HeLa cell line (MMS treatment, read-out: PARG Cell IC50).
As for `Cc1cc(Cn2c(=O)c3cc(S(=O)(=O)NC4(C)CC4)ccc3n(CC3CC3(F)F)c2=O)on1` (stereo not shown) [Example 364], the results for the IC50 at Human Full Length PARG (setting [2]) and in the test with PARG in HeLa cell line (setting [3]) were 408 nM and 106 nM, respectively.
As to `Cc1cc(Cn2c(=O)n(Cc3cnn(C)c3)c(=O)c3cc(S(=O)(=O)NC4(C#N)CC4)ccc32)on1` [Example 359], the IC50 on Human Full Length PARG (setting [2]) came out at 43 nM; with PARG in HeLa cell line (setting [3]), 1100 nM.
On the same counts, the results for `Cn1cc(Cn2c(=O)c3cc(S(=O)(=O)NC4(C)CC4)ccc3n(CC3CCCCC3)c2=O)cn1` [Example 280] are 177 nM and 103 nM.
On to `CCn1c(=O)n(Cc2cnn(C)c2)c(=O)c2cc(S(=O)(=O)NC3(C#N)CC3)ccc21` [Example 347], for which the half-inhibitory concentration (IC50) at Human Full Length PARG (setting [2]) was determined as 210 nM; in the test with PARG in HeLa cell line (setting [3]), 916 nM.
The corresponding values for `CCn1c(=O)n(Cc2cc(C)no2)c(=O)c2cc(S(=O)(=O)NC3(C)CC3)ccc21` [Example 304] are 329 nM and 113 nM.
Consider `Cc1nc(Cn2c(=O)n(Cc3cnn(C)c3)c(=O)c3cc(S(=O)(=O)NC4(CF)CC4)ccc32)c[nH]1` [Example 568, N-[1-(Fluoromethyl)cyclopropyl]-1-[(2-methyl-1H-imidazol-4-yl)methyl]-3-[(1-methylpyrazol-4-yl)methyl]-2,4-dioxo-quinazoline-6-sulfonamide], for which the 50% inhibitory concentration (IC50) at Human Full Length PARG (read-out: PARG Biochem IC50) came to 100 nM; in the test with PARG in HeLa cell line (setting [1]), 5290 nM.
For the molecule `Cn1cc(Cn2c(=O)c3cc(S(=O)(=O)NC4(C#N)CC4)ccc3n(CC3CC3)c2=O)cn1` [Example 346], the half-maximal inhibitory concentration (IC50) amounted to 47 nM at Human Full Length PARG (setting [2]) and 390 nM with PARG in HeLa cell line (setting [3]).
Regarding `Cc1cc(Cn2c(=O)c3cc(S(=O)(=O)NC4(CF)CC4)ccc3n(Cc3nncn3C)c2=O)on1` [Example 551, N-[1-(Fluoromethyl)cyclopropyl]-3-[(3-methylisoxazol-5-yl)methyl]-1-[(4-methyl-1,2,4-triazol-3-yl)methyl]-2,4-dioxo-quinazoline-6-sulfonamide], the IC50 at Human Full Length PARG (read-out: PARG Biochem IC50) was found to be 404 nM; with PARG in HeLa cell line (setting [1]), 20400 nM.
Take `Cc1ncc(Cn2c(=O)n(C)c(=O)c3cc(S(=O)(=O)NC4(C)CC4)ccc32)s1` [Example 126]: the values for the IC50 on Human Full Length PARG (setting [2]) and in the test with PARG in HeLa cell line (setting [3]) were 240 nM and 214 nM, respectively.
Regarding `CSCCn1c(=O)n(Cc2cnn(C)c2)c(=O)c2cc(S(=O)(=O)NC3(C)CC3)ccc21` [Example 366], the values for the concentration for half-maximal inhibition (IC50) at Human Full Length PARG (setting [2]) and in the test with PARG in HeLa cell line (setting [3]) were 160 nM and 30 nM, respectively.
Regarding `Cc1cc(Cn2c(=O)c3cc(S(=O)(=O)NC4(CF)CC4)ccc3n(Cc3nnc(C)s3)c2=O)on1` [Example 552, N-[1-(Fluoromethyl)cyclopropyl]-3-[(3-methylisoxazol-5-yl)methyl]-1-[(5-methyl-1,3,4-thiadiazol-2-yl)methyl]-2,4-dioxo-quinazoline-6-sulfonamide], the IC50 on Human Full Length PARG (read-out: PARG Biochem IC50) amounted to 175 nM; in the test on PARG in HeLa cell line (setting [1]) it was 157 nM.
On the same counts, the results for `Cn1cc(Cn2c(=O)c3cc(S(=O)(=O)NC4(CF)CC4)ccc3n(CC#N)c2=O)cn1` [Example 439, 1-(Cyanomethyl)-N-[1-(fluoromethyl)cyclopropyl]-3-[(1-methylpyrazol-4-yl)methyl]-2,4-dioxo-quinazoline-6-sulfonamide] are 310 nM and 420 nM.
For `Cn1cc(Cn2c(=O)c3cc(S(=O)(=O)NC4(C)CC4)ccc3n(CC3(F)COC3)c2=O)cn1` [Example 348], the values for the IC50 on Human Full Length PARG (setting [2]) and in the test with PARG in HeLa cell line (setting [3]) were 101 nM and 328 nM, respectively.
On the same counts, the results for `Cn1cc(Cn2c(=O)c3cc(S(=O)(=O)NC4(C)CC4)ccc3n(CCC3CC3)c2=O)cn1` [Example 296] are 73 nM and 70 nM.

In general, IC50 refers to the concentration that gives 50% inhibition.
